Where two headings read alike, the source gives them in different places.
How the values were obtained:
[1] = system: TNFα production in LPS-stimulated human monocytes; test: Cot Monocyte TNFα Cell Based Assay; conditions: Homo sapiens, Monocyte, read-out: EC50 TNF
Procedure, shortened: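 TNFα release quantified by two-antibody TR-FRET, normalised to unstimulated (0%) and LPS-stimulated (100%) wells. Cells got a 1 h compound exposure at 37° C in 0.5% DMSO before 4 h challenge with 50 pg/ml LPS, at 5,000 cells/well.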

[2] = biological target: T1, human Cot catalytic domain (30-397 amino acids) (Homo sapiens, UniProt P41279); test: High Throughput Cot Biochemical Assay (KinEASE TR-FRET); conditions: Cot KinEASE TR-FRET (HTRF) biochemical assay, 400 μM ATP; read-out: IC50 HTRF
T1 construct: Purified recombinant human Cot catalytic domain (30-397 amino acids) was purchased from Cama Biosciences; purchased Cama Biosciences (so in the source)
Procedure, shortened: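 TR-FRET (KinEASE) read-out: Eu-labelled phospho-specific antibody binds XL665-tagged STK3 peptide (1 μM) phosphorylated by 5 nM human Cot kinase domain (residues 30-397). Reaction at 400 μM ATP, pH 7.0 MOPS buffer with 10 mM MgOAc, 1 mM DTT and 0.1% DMSO.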

[3] = TNFα in LPS-stimulated human monocytes

T1 sequence (P41279 30-397): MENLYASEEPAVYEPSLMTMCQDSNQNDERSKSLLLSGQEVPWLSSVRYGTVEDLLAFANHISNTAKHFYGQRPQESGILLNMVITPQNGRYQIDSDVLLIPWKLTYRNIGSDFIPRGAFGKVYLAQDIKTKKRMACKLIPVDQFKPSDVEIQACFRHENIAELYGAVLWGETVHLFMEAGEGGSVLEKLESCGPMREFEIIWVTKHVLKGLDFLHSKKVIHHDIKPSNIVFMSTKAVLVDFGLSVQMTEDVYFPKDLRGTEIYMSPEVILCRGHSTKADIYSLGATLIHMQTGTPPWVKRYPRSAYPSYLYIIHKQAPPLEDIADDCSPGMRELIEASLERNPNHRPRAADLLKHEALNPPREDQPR

SMILES	EC50 [1, 3]	IC50 [2]	EC50 [1]
[2H][C@](Nc1cc(F)c2ncc(C#N)c(NCC(C)(C)C)c2c1)(c1cccc(C#N)c1)c1cn(C2CC2)nn1 [Example 256, (S)-6-(((3-cyanophenyl)(1-cyclopropyl-1H-1,2,3-triazol-4-yl)methyl-d)amino)-8-fluoro-4-(neopentylamino)quinoline-3-carbonitrile]	121 nM	3 nM	
[2H][C@](Nc1cc(F)c2ncc(C#N)c(N[C@H](CC)c3ccccc3)c2c1)(c1cccc(C#N)c1)c1cn(C2CC2)nn1 [Example 257, 6-(((S)-(3-cyanophenyl)(1-cyclopropyl-1H-1,2,3-triazol-4-yl)methyl-d)amino)-8-fluoro-4-(((R)-1-phenylpropyl)amino)quinoline-3-carbonitrile]	93 nM	3 nM	
CC[C@@H](Nc1c(C#N)cnc2c(Cl)cc(N[C@H](c3cn(C4CC4)nn3)c3cc(C#N)ccc3Cl)cc12)c1ccccc1 [Example 258, 8-chloro-6-(((S)-(2-chloro-5-cyanophenyl)(1-cyclopropyl-1H-1,2,3-triazol-4-yl)methyl)amino)-4-(((R)-1-phenylpropyl)amino)quinoline-3-carbonitrile]	651 nM	44 nM	
[2H][C@](Nc1cc(Cl)c2ncc(C#N)c(N[C@H](CCO)c3ccccc3)c2c1)(c1cccc(C#N)c1)c1cn(C2CC2)nn1 [Example 259, 8-chloro-6-(((3-cyanophenyl)(1-cyclopropyl-1H-1,2,3-triazol-4-yl)methyl-d)amino)-4-(((R)-3-hydroxy-1-phenylpropyl)amino)quinoline-3-carbonitrile]	87 nM	5 nM	
[2H][C@](Nc1cc(Cl)c2ncc(C#N)c(NCC3(C4CC4)CCC3)c2c1)(c1ccc(F)cc1)c1cn(C2CC2)nn1 [Example 260, (S)-8-chloro-6-(((1-cyclopropyl-1H-1,2,3-triazol-4-yl)(4-fluorophenyl)methyl-d)amino)-4-(((1-cyclopropylcyclobutyl)methyl)amino)quinoline-3-carbonitrile]	584 nM	33 nM	
[2H][C@](Nc1cc(Cl)c2ncc(C#N)c(NC[Si](C)(C)C)c2c1)(c1ccc(F)cc1)c1cn(C2CC2)nn1 [Example 262, (S)-8-chloro-6-(((1-cyclopropyl-1H-1,2,3-triazol-4-yl)(4-fluorophenyl)methyl-d)amino)-4-(((trimethylsilyl)methyl)amino) quinoline-3-carbonitrile]		10 nM	259 nM
[2H]C(Nc1cc(Cl)c2ncc(C#N)c(NCC(C)(C)C)c2c1)(c1ccc(F)cc1)c1nnnn1Cc1ccc(OC)cc1 (stereo not drawn) [Example 263, 8-chloro-6-(((4-fluorophenyl) (1-(4-methoxybenzyl)-1H-tetrazol-5-yl)methyl-d)amino)-4-(neopentylamino)quinoline-3-carbonitrile]	> 10000 nM	733 nM	
N#Cc1cnc2c(Cl)cc(N[C@@H](c3cccc(C(F)(F)F)c3)c3cn(C4CC4)nn3)cc2c1Nc1cnc(F)c(F)c1 [Example 264, (S)-8-chloro-6-(((1-cyclopropyl-1H-1,2,3-triazol-4-yl)(3-(trifluoromethyl)phenyl)methyl)amino)-4-((5,6-difluoropyridin-3-yl)amino)quinoline-3-carbonitrile]	567 nM	45 nM	
N#Cc1cnc2c(Cl)cc(N[C@@H](c3cccc(F)c3)c3cn(C4CC4)nn3)cc2c1Nc1cnc(F)c(F)c1 [Example 265, (S)-8-chloro-6-(((1-cyclopropyl-1H-1,2,3-triazol-4-yl)(3-fluorophenyl)methyl)amino)-4-((5,6-difluoropyridin-3-yl)amino)quinoline-3-carbonitrile]	471 nM	12 nM	
N#Cc1cnc2c(Cl)cc(N[C@@H](c3cccc(Cl)c3)c3cn(C4CC4)nn3)cc2c1Nc1cnc(F)c(F)c1 [Example 266, (S)-8-chloro-6-(((3-chlorophenyl)(1-cyclopropyl-1H-1,2,3-triazol-4-yl)methyl)amino)-4-((5,6-difluoropyridin-3-yl)amino)quinoline-3-carbonitrile]	424 nM	16 nM	
[2H][C@](Nc1cc(Cl)c2ncc(C#N)c(NC(CC#N)c3ccccc3)c2c1)(c1ccc(F)cc1)c1cn(-c2cccnc2)nn1 (stereo partly drawn) [Example 267, 8-chloro-4-((2-cyano-1-phenylethyl)amino)-6-(((S)-(4-fluorophenyl)(1-(pyridin-3-yl)-1H-1,2,3-triazol-4-yl)methyl-d)amino)quinoline-3-carbonitrile]	194 nM	7 nM	
[2H][C@](Nc1cc(Cl)c2ncc(C#N)c(NCCC(C)C)c2c1)(c1ccc(F)cc1)c1cn(C2CC2)nn1 [Example 268, (S)-8-chloro-6-(((1-cyclopropyl-1H-1,2,3-triazol-4-yl)(4-fluorophenyl)methyl-d)amino)-4-(isopentylamino)quinoline-3-carbonitrile]	2890 nM	166 nM	
[2H][C@](Nc1cc(Cl)c2ncc(C#N)c(NCCC3CC3)c2c1)(c1ccc(F)cc1)c1cn(C2CC2)nn1 [Example 269, (S)-8-chloro-6-(((1-cyclopropyl-1H-1,2,3-triazol-4-yl)(4-fluorophenyl)methyl-d)amino)-4-((2-cyclopropylethyl)amino)quinoline-3-carbonitrile]	4520 nM	253 nM	
[2H][C@](Nc1cc(Cl)c2ncc(C#N)c(NCCc3ccccn3)c2c1)(c1ccc(F)cc1)c1cn(C2CC2)nn1 [Example 270, (S)-8-chloro-6-(((1-cyclopropyl-1H-1,2,3-triazol-4-yl)(4-fluorophenyl)methyl-d)amino)-4-((2-(pyridin-2-yl)ethyl)amino)quinoline-3-carbonitrile]	2280 nM	96 nM	
[2H][C@](Nc1cc(Cl)c2ncc(C#N)c(NCCc3cccnc3)c2c1)(c1ccc(F)cc1)c1cn(C2CC2)nn1 [Example 271, (S)-8-chloro-6-(((1-cyclopropyl-1H-1,2,3-triazol-4-yl)(4-fluorophenyl)methyl-d)amino)-4-((2-(pyridin-3-yl)ethyl)amino)quinoline-3-carbonitrile]	4560 nM	434 nM	
CC[C@@H](Nc1c(C#N)cnc2c(Cl)cc(N[C@@H](c3cccc(F)c3)c3cn(C4CC4)nn3)cc12)c1ccccc1 [Example 272, 8-chloro-6-(((S)-(1-cyclopropyl-1H-1,2,3-triazol-4-yl)(3-fluorophenyl)methyl)amino)-4-(((R)-1-phenylpropyl)amino)quinoline-3-carbonitrile]	215 nM	12 nM	
CC[C@@H](Nc1c(C#N)cnc2c(Cl)cc(N[C@@H](c3cccc(Cl)c3)c3cn(C4CC4)nn3)cc12)c1ccccc1 [Example 273, 8-chloro-6-(((S)-(3-chlorophenyl)(1-cyclopropyl-1H-1,2,3-triazol-4-yl)methyl)amino)-4-(((R)-1-phenylpropyl)amino)quinoline-3-carbonitrile]	178 nM	13 nM	
[2H][C@](Nc1cc(Cl)c2ncc(C#N)c(Nc3cccc(Cl)c3)c2c1)(c1cccc(C#N)c1)c1cn(C2CC2)nn1 [Example 274, (S)-8-chloro-4-((3-chlorophenyl)amino)-6-(((3-cyanophenyl)(1-cyclopropyl-1H-1,2,3-triazol-4-yl)methyl-d)amino)quinoline-3-carbonitrile]	254 nM	5 nM	

Source: patent US10316017B2, “COT modulators and methods of use thereof” (Gilead Sciences, Inc., priority 2015, dated 2019)
